Source: patent US20260256799A1, “INHIBITORS FOR TREATING SOLID TUMOURS” (UNIVERSITY OF SOUTHAMPTON, priority 2023, published 2026)

Tested on: MLF
Test: TGF-β1-induced myofibroblast differentiation of mouse lung fibroblasts
Type: cell-based
Method: Human NSCLC cell line H441, HNSCC SCC25, murine cancer cell line TC-1 (lung), MC38 (colon) and human fetal foreskin fibroblasts HFFF2 were purchased from European Collection of Cell Cultures (Public Health England) or ATCC; HNSCC 5PT [32] were provided by l. Mackenzie (Queen Mary University of London, UK). HEK-293T cells and IMR90 lung fibroblasts were provided by Jesus Gil (Imperial College, London, UK). SCC25 were grown in Ham's F12:DMEM (1:1 ratio) medium with 10% FBS (Calbiochem) and 292 μg/ml L-Glutamine. 5PT were cultured in keratinocyte growth medium. HEK-293T, H441, MC38, HFFF2, IMR90 and primary fibroblasts were grown in DMEM supplemented with 10% FBS and 292 μg/ml L-Glutamine. Primary fibroblasts were isolated as previously used at early passage (p1-10). C57BL/6 murine normal lung and colon fibroblasts (MLF and MCF respectively) were grown at 3% oxygen. TC-1 were cultured in RPMI supplemented with 10% FBS and 292 μg/ml L-Glutamine. All cell cultures were routinely tested for mycoplasma contamination. All cells were cultured using standard cell culture plates/flasks (Corning). HFFF2 or IMR90 cells were transfected with 25 μM On-Target pool siRNA (Thermo Scientific/Dharmacon) using Oligofectamine reagent (Life Technologies) as described. Stable knockdown was performed using retro/lentiviral mediated transduction of shRNA plasmids, as previously described followed by cell selection using 1 μg/ml puromycin for 5-7 days. NOX4-inducible HEK-293 cells (kindly provided by Vincent Jaquet) were treated with 1 μg/ml doxycycline. […]
5×10^3 HFFF2 were plated on permanox chamber slides (Thermo Scientific) and treated as described in the figure legends. […] Images were taken using an Olympus IX81 fluorescence microscope and Xcellence program. DNA Damage foci were quantified from at least 8 non-overlapping FoV with ~300 cells in total per condition. […] SMA and Collagen 1A1 quantification was performed using Fiji. […]

[1] = AZD0156 0.5 μM + TGF-β1 for a week, Q-RT-PCR

CN(C)CCCOc1ccc(-c2ccc3ncc4c(c3c2)n(C2CCOCC2)c(=O)n4C)cn1 [AZD0156]
myofibroblast differentiation in vitro (AZD0156 0.5 μM + TGF-β1, 72 hours (Western) or 7 days (Collagen1, Fibronectin)): suppressed | effect on iCAF genes [1]: gene-specific and generally non-significant | myoCAF genes expression [1]: significantly down-regulated
